Key:
B1R of rats = target: T1, B1R of rats (Rattus norvegicus, UniProt P97583); test: Functional investigation on the bradykinin 1 receptor (B1R), cell-based fluorescent calcium-mobilization assay (FLIPR/Novostar), rat; conditions: 10 μM test substance; CHO K1 cells stably transfected with rat B1R gene; agonist Des-Arg9-bradykinin at EC80; % inhibition compared with maximum achievable inhibition; read-out: B1R antagonism, rat [10 μM] % inhibition
T1 construct: expressed in transfected cells; host or cells: CHO K1 cells
T1 sequence (P97583 1-337): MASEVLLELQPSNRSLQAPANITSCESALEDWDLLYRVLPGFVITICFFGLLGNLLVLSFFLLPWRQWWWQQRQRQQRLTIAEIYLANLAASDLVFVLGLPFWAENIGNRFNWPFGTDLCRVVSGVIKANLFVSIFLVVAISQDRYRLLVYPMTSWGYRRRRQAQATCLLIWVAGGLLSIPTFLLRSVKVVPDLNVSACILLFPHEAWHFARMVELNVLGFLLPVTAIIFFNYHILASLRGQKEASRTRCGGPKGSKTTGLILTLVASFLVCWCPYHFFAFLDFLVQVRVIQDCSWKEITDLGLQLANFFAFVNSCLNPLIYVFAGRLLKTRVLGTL
Method: (§1) The agonistic or antagonistic action of substances can be quantified on the bradykinin 1 receptor (B1R) of the human and rat species with ectopically expressing cell lines (CHO K1 cells) and with the aid of a Ca^2+-sensitive dyestuff (Fluo-4) in a fluorescent imaging plate reader (FLIPR). The figure in % activation is based on the Ca^2+ signal after addition of Lys-Des-Arg^9-bradykinin (0.5 nM) or Des-Arg^9-bradykinin (100 nM). Antagonists lead to a suppression of the Ca^2+ inflow after addition of the agonist. % inhibition compared with the maximum achievable inhibition is stated.
(§2) The agonistic or antagonistic action of substances can be determined on the bradykinin 1 receptor (B1R) of humans and rats by means of a cell-based flourescent calcium-mobilization assay. According to this assay agonist-induced increase of intracellular free Ca^2+ is quantified by means of a Ca^2+-sensitive dye (Fluo-4 type, Molecular Probes Europe BV, Leiden, Netherlands), in a Fluorescent Imaging Plate Reader (FLIPR, Molecular Devices, Sunnyvale, USA) and/or the Novostar (BMG Labtech GmbH, Offenburg, Germany).
(§3) Chinese hamster ovary cells (CHO K1 cells), which are stably transfected with the human B1R gene (hB1R cells) or with the B1R gene of rats (rB1R cells), are used. For functional investigations these cells are seeded into black 96-well plates with a clear bottom (BD Biosciences, Heidelberg, Germany or Greiner, Frickenhausen, Germany) in a density of 20,000-35,000 cells/well. The cells are incubated overnight in a humidified atmosphere at 37° C. and 5% CO2 in culture medium (hB1R cells: Nutrient Mixture Ham's F12, Gibco Invitrogen GmbH, Karlsruhe, Germany or DMEM, Sigma-Aldrich, Taufkirchen, Germany; rB1R cells: D-MEM/F12, Gibco Invitrogen GmbH, Karlsruhe, Germany) with 10 vol. % FBS (foetal bovine serum, Gibco Invitrogen GmbH, Karlsruhe, Germany).
(§4) On the following day the cells are loaded with the Ca^2+-sensitive dye Fluo-4-AM (Molecular Probes Europe BV, Leiden, Netherlands):
(§5) Method A: The medium of the cells is removed and cell plates are incubated with loading solution, which contains 2.13 μM Fluo-4-AM, 2.5 mM probenecid (Sigma-Aldrich, Taufkirchen, Germany), and 10 mM HEPES (Sigma-Aldrich, Taufkirchen, Germany) in HBSS buffer (Hank's buffered saline solution, Gibco Invitrogen GmbH, Karlsruhe, Germany) for 60 minutes at 37° C. After the plates are washed twice with HBSS buffer, HBSS buffer supplemented 0.1% BSA (bovine serum albumin; Sigma-Aldrich, Taufkirchen, Germany), 5.6 mM glucose and 0.05% gelatine (Merck KGaA, Darmstadt, Germany) is added. Cell plates are incubated for at least 20 minutes in the dark at room temperature before they are used for the Ca^2+ measurement in the FLIPR or Novostar.
(§6) Method B: The plates are washed with buffer A (15 mM HEPES, 80 mM NaCl, 5 mM KCl, 1.2 mM CaCl2, 0.7 mM MgSO4, 2 mg/ml glucose, 2.5 mM probenecid) and subsequently loaded with buffer A containing 2.4 μM Fluo-4-AM and 0.025% pluronic F127 (Sigma-Aldrich, Taufkirchen, Germany) for 60 minutes at 37° C. Cell plates are washed twice with buffer A. Then, buffer A supplemented with 0.05% BSA and 0.05% gelatine is added and cell plates are incubated in the dark at room temperature for at least 20 minutes before measurement in the FLIPR or Novostar is started.
(§7) The Ca^2+-dependent fluorescence is measured both before and after the addition of substances (λex=488 nm, λem=540 nm). For quantification of the effect the highest fluorescence intensity (FC, fluorescence counts) over time is given. The FLIPR protocol consists of two substance additions, done within the instrument while continuously monitoring the Ca^2+-dependent fluorescence at 540 nm. When the Novostar was used, one addition had to be done outside the instrument. Test substances (10 μM) are initially pipetted onto the cells and the intracellular Ca^2+ rise is compared with the control (hB1R: Lys-Des-Arg9-bradykinin>=50 nM; rB1R: Des-Arg9-bradykinin>=1 μM). […]

human B1R = target: T2, human B1R (Homo sapiens, UniProt P46663); test: Functional investigation on the bradykinin 1 receptor (B1R), cell-based fluorescent calcium-mobilization assay (FLIPR/Novostar), human; conditions: 10 μM test substance; CHO K1 cells stably transfected with human B1R gene; agonist Lys-Des-Arg9-bradykinin at EC80; % inhibition compared with maximum achievable inhibition; read-out: B1R antagonism, human [10 μM] % inhibition
T2 construct: expressed in transfected cells; host or cells: CHO K1 cells
T2 sequence (P46663 1-353): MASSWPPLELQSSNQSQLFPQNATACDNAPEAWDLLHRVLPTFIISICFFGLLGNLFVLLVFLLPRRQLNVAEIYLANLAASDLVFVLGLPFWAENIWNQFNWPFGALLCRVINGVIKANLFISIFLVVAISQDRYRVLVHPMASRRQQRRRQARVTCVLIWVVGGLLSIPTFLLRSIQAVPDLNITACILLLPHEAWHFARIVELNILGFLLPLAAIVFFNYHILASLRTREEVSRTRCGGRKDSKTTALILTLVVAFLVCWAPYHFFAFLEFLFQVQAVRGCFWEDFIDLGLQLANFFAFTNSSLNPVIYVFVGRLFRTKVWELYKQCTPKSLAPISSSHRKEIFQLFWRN
Method: as §1, §2, §3, §4, §5, §6, §7

Compound	inhibition at 10 µM (B1R of rats) [%]	inhibition at 10 µM (human B1R) [%]
COc1cc(C)c(S(=O)(=O)N(C)CCOCC(=O)N2CCC(CNC(C)=O)(N3CCN(c4ccncc4)CC3)CC2)c(C)c1 [Example 41, N-((1-(2-(2-(4-methoxy-N,2,6-trimethylphenylsulfonamido)ethoxy)acetyl)-4-(4-(pyridin-4-yl)piperazin-1-yl)piperidin-4-yl)methyl)acetamide]	102	100
COc1cc(C)c(S(=O)(=O)N2CCCCC2COCC(=O)N2CCC(CNC(C)=O)(N3CCN(C)CC3)CC2)c(C)c1 (stereo not shown) [Example 27, N-((1-(2-((1-(4-methoxy-2,6-dimethylphenylsulfonyl)piperidin-2-yl)methoxy)acetyl)-4-(4-methylpiperazin-1-yl)piperidin-4-yl)methyl)acetamide]	102	103
COc1cc(C)c(S(=O)(=O)N2CCCCC2COCC(=O)N2CCC(CNC(=O)c3ccncc3)(N3CCN(C)CC3)CC2)c(C)c1 (stereo not shown) [Example 28, N-((1-(2-((1-(4-methoxy-2,6-dimethylphenylsulfonyl)piperidin-2-yl)methoxy)acetyl)-4-(4-methylpiperazin-1-yl)piperidin-4-yl)methyl)-isonicotinamide]	102	102
COc1cc(C)c(S(=O)(=O)N(C)CCOCC(=O)N2CCC(CNC(=O)c3cccnc3)(N3CCN(C)CC3)CC2)c(C)c1 [Example 32, N-((1-(2-(2-(4-methoxy-N,2,6-trimethylphenylsulfonamido)ethoxy)acetyl)-4-(4-methylpiperazin-1-yl)piperidin-4-yl)methyl)nicotinamide]	101	104
COc1cc(C)c(S(=O)(=O)N(C)CCOCC(=O)N2CCC(CNC(=O)c3ccccn3)(N3CCN(C)CC3)CC2)c(C)c1 [Example 25, N-((1-(2-(2-(4-methoxy-N,2,6-trimethylphenylsulfonamido)ethoxy)acetyl)-4-(4-methylpiperazin-1-yl)piperidin-4-yl)methyl)picolinamide]	101	103
CC(=O)NCC1(N2CCN(C)CC2)CCN(C(=O)CC2CCCCN2S(=O)(=O)c2cccc(C(F)(F)F)c2)CC1 (stereo not shown) [Example 12, N-((4-(4-methylpiperazin-1-yl)-1-(2-(1-(3-(trifluoromethyl)phenylsulfonyl)-piperidin-2-yl)acetyl)piperidin-4-yl)methyl)acetamide]	13	80
CC(=O)NCC1(N2CCN(c3ccncc3)CC2)CCN(C(=O)CCC2CCCCN2S(=O)(=O)c2cc(C)c(Cl)cc2C)CC1 (stereo not shown) [Example 11, N-((1-(3-(1-(4-chloro-2,5-dimethylphenylsulfonyl)piperidin-2-yl)propanoyl)-4-(4-(pyridin-4-yl)piperazin-1-yl)piperidin-4-yl)methyl)acetamide]	75	102
CN1CCN(C2(CNC(=O)c3ccncc3)CCN(C(=O)COCC3CCc4ccccc4N3S(=O)(=O)c3ccc(Cl)c(Cl)c3)CC2)CC1 (stereo not shown) [Example 30, N-((1-(2-((1-(3,4-dichlorophenylsulfonyl)-1,2,3,4-tetrahydroquinolin-2-yl)methoxy)acetyl)-4-(4-methylpiperazin-1-yl)piperidin-4-yl)methyl)-isonicotinamide]	80	100
CC(=O)NCC1(N2CCN(C)CC2)CCN(C(=O)CC(NS(=O)(=O)c2ccc3ccccc3c2)c2ccccc2)CC1 (stereo not shown) [Example 35, N-((4-(4-methylpiperazin-1-yl)-1-(3-(naphthalene-2-sulfonamido)-3-phenylpropanoyl)piperidin-4-yl)methyl)acetamide]	102	89
CN1CCN(C2(CNC(=O)c3ccccn3)CCN(C(=O)COCC3CCc4ccccc4N3S(=O)(=O)c3ccc(Cl)c(Cl)c3)CC2)CC1 (stereo not shown) [Example 20, N-((1-(2-((1-(3,4-dichlorophenylsulfonyl)-1,2,3,4-tetrahydroquinolin-2-yl)-methoxy)acetyl)-4-(4-methylpiperazin-1-yl)piperidin-4-yl)methyl)picolinamide]	60	91
COc1cc(C)c(S(=O)(=O)N2CCCCC2COCC(=O)N2CCC(CNC(=O)c3ccccc3)(N3CCN(C)CC3)CC2)c(C)c1 (stereo not shown) [Example 5, N-((1-(2-((1-(4-methoxy-2,6-dimethylphenylsulfonyl)piperidin-2-yl)methoxy)acetyl)-4-(4-methylpiperazin-1-yl)piperidin-4-yl)methyl)benzamide]	104	102
COc1cc(C)c(S(=O)(=O)N(C)CCOCC(=O)N2CCC(CNC(=O)c3ccccc3)(N3CCN(C)CC3)CC2)c(C)c1 [Example 24, N-((1-(2-(2-(4-methoxy-N,2,6-trimethylphenylsulfonamido)ethoxy)acetyl)-4-(4-methylpiperazin-1-yl)piperidin-4-yl)methyl)benzamide]	101	103
COc1cc(C)c(S(=O)(=O)N2CCCCC2COCC(=O)N2CCC(CNC(C)=O)(N3CCN(c4ccncc4)CC3)CC2)c(C)c1 (stereo not shown) [Example 22, N-((1-(2-((1-(4-methoxy-2,6-dimethylphenylsulfonyl)piperidin-2-yl)methoxy)acetyl)-4-(4-(pyridin-4-yl)piperazin-1-yl)piperidin-4-yl)methyl)acetamide]	101	103
Cc1cc(S(=O)(=O)N2CCCCC2CCC(=O)N2CCC(CNC(=O)c3ccccn3)(N3CCN(C)CC3)CC2)c(C)cc1Cl (stereo not shown) [Example 9, N-((1-(3-(1-(4-chloro-2,5-dimethylphenylsulfonyl)piperidin-2-yl)propanoyl)-4-(4-methylpiperazin-1-yl)piperidin-4-yl)methyl)picolinamide]	11	99

— patent publication US8541573B2, “Substituted sulfonamide compounds” (Gruenenthal GmbH, priority 2008, dated 2013)
